Reference: patent publication US11439643B2, “Combination therapy using belinostat and pralatrexate to treat lymphoma” (Spectrum Pharmaceuticals, Inc., priority 2015, dated 2022)
Read-outs that look alike come from different tables or passages of the source.

Key:
Assay type in all cases: cell-based
[1] = tested on: HUT-78 [Cutaneous T lymphocyte (T cell origin)]; test: CellTiter-Glo cell viability / growth inhibition, HUT-78; details: Homo sapiens, HuT78
Description: (§1) The growth inhibitory effects of belinostat alone, and in combination with pralatrexate, was assayed in several different human lymphoma cell lines in vitro.
(§2) Serum used in this study is un-dialyzed fetal bovine serum (Atlanta Biologics) and contains<[…] of 5-methyltetrahydrofolate.
(§3) The cultures are maintained in T75-cm^2 culture flasks at 37° C., 95% air humidity, and 5% CO2. The cells are subcultured at 80-90% confluence and are seeded into 96-well plates at 1.5×10^4 cells per well for each experiment.
(§4) Cell Treatment: Treatment is initiated 24 hours after plating. […] Growth Inhibition Assay: Cell viability is determined using the CellTiter-Glo® Luminescent Cell Viability assay from Promega. The CellTiter-Glo® assay is a homogeneous method to determine and compare cell viability using ATP utilization. Following treatment, 100 μl of growth medium is removed and cells are incubated with 100 μl CellTiter-Glo® reagent for two minutes with nutation and incubated at room temperature for ten additional minutes to stabilize the luminescence signal; luminescence is then measured using a Biotek luminometer with values reported in (Lum).
(§5) Data analysis: Cell viability in each assay is expressed as a percentage versus untreated control cells.

[2] = tested on: Jeko-1 [Mantle Cell Lymphoma (B cell origin)]; test: CellTiter-Glo cell viability / growth inhibition, Jeko-1; details: Homo sapiens; Jeko-1, belinostat plus pralatrexate concurrently, 72 h; read-out: IC50 in combination studies
Description: as §1, §2, §3, §4, §5

[3] = tested on: KARPAS-299 [Human Non-Hodgkin's Ki-positive Large Cell Lymphoma (T cell origin)]; test: CellTiter-Glo cell viability / growth inhibition, KARPAS-299
Description: as §1, §2, §3, §4, §5

[4] = tested on: panel of lymphoma cell lines; test: CellTiter-Glo cell viability, panel of lymphoma cell lines; details: Homo sapiens; single agent, 72 hr exposure, range over cell lines; read-out: Single agent IC50 values across a panel of lymphoma cell lines
Description: as §1, §2, §3
Cell Treatment: Treatment is initiated 24 hours after plating.
Growth Inhibition Assay: Cell viability is determined using the CellTiter-Glo® Luminescent Cell Viability assay from Promega. The CellTiter-Glo® assay is a homogeneous method to determine and compare cell viability using ATP utilization. Following treatment, 100 μl of growth medium is removed and cells are incubated with 100 μl CellTiter-Glo® reagent for two minutes with nutation and incubated at room temperature for ten additional minutes to stabilize the luminescence signal; luminescence is then measured using a Biotek luminometer with values reported in (Lum).
as §5

[5] = HUT-78, belinostat plus pralatrexate concurrently, 72 h, read-out: IC50 in combination studies
[6] = HUT-78, single agent, 72 hr exposure, read-out: Single Agent IC50
[7] = KARPAS-299, belinostat plus pralatrexate concurrently, 72 h, read-out: IC50 in combination studies

| IC50 [2] | IC50 [3, 7] | IC50 ([3]; KARPAS-299, single agent, 72 hr exposure, read-out: Single Agent IC50) | IC50 [4] | SMILES | IC50 [1, 5] | IC50 [1, 6] |
| --- | --- | --- | --- | --- | --- | --- |
| 2.1 nM | 3.6 nM | 24 nM | 2 to 25 nM | C#CCC(Cc1cnc2nc(N)nc(N)c2n1)c1ccc(C(=O)N[C@@H](CCC(=O)O)C(=O)O)cc1 (mixture of isomers) [Pralatrexate, (2S)-2-[[4-[(1RS)-1-[(2,4-diaminopteridin-6-yl)methyl]but-3ynyl]benzoyl]amino]pentanedioic acid] | 4.1 nM | 2.8 nM |
| 87 nM | 127 nM |  | 90 to 210 nM | O=C(/C=C/c1cccc(S(=O)(=O)Nc2ccccc2)c1)NO [Belinostat, (2E)-N-hydroxy-3-[3-(phenylsulfamoyl)phenyl]prop-2-enamide] | 170 nM | 97 nM |
